Patent US20250382308A1, “COMPOUNDS ACTIVE TOWARDS BROMODOMAINS” (NUEVOLUTION A/S, priority 2022, published 2025)

Tests used:
[1] = target: first bromodomain of BRD4 (Homo sapiens (Human), UniProt O60885); experiment: Bromoscan binding assay BRD4 (1); settings: for Kd: Bromoscan, geometric mean where multiple measurements have been made; for Selectivity BRD4(2)/BRD4(1): ratio BRD4(2) Kd / BRD4(1) Kd
Protocol: (§1) Compounds were assayed for binding affinity using bromoscan assays and a phosphodiesterase three assay.
(§2) Bromoscan assays were run by DiscoveRx Corporation. The relevant assay names are BRD4 (1) for the first bromodomain of BRD4 and BRD4 (2) for the second bromodomain of BRD4. Further Bromoscan assays covering other bromodomains may be employed to establish the selectivity profile of a compound of interest. To run the Bromoscan assay, a T7 phage strain displaying the relevant bromodomain was grown in parallel in 24-well blocks in an E. coli host derived from the BL21 strain. E. coli were grown to log-phase and infected with T7 phage from a frozen stock (multiplicity of infection=0.4) and incubated with shaking at 32° C. until lysis (90-150 minutes). The lysates were centrifuged (5,000×g) and filtered (0.2 μm) to remove cell debris. […] The liganded beads were blocked with excess biotin and washed with blocking buffer (SeaBlock (Pierce), 1% BSA (bovine serum albumin), 0.05% Tween 20, 1 mM DTT (dithiothreitol)) to remove unbound ligand and to reduce non-specific phage binding. […] Test compounds were prepared as 1000× stocks in 100% DMSO and subsequently diluted 1:10 in monoethylene glycol (MEG) to create stocks at 100× the screening concentration (resulting stock solution is 10% DMSO/90% MEG). The compounds were then diluted directly into the assays such that the final concentration of DMSO and MEG were 0.1% and 0.9%, respectively. All reactions were performed in polystyrene 96-well plates in a final volume of 0.135 ml. […] The bromodomain concentration in the eluates was measured by qPCR (quantitative real-time polymerase chain reaction). Binding constants (Kds) were calculated with a standard dose-response curve using the Hill equation: Response=Blackground+((Signal-Background)/(1+Kd^Hill Slope/Dose^Hill Slope)). The Hill Slope was set to −1. Curves were fitted using a non-linear least square fit with the Levenberg-Marquardt algorithm.

[2] = target: second bromodomain of BRD4 (Homo sapiens (Human), UniProt O60885); experiment: Bromoscan binding assay BRD4 (2); settings: geometric mean where multiple measurements have been made
Protocol: as §1, §2

[3] = target: human recombinant phosphodiesterase (PDE3A) (Homo sapiens (Human), UniProt Q14432); experiment: Radiometric PDE3A assay; format: biochemical; settings: [3H]-cAMP hydrolysis, 20 minutes at 30° C.
Sequence of human recombinant phosphodiesterase (PDE3A) (Q14432 whole entry): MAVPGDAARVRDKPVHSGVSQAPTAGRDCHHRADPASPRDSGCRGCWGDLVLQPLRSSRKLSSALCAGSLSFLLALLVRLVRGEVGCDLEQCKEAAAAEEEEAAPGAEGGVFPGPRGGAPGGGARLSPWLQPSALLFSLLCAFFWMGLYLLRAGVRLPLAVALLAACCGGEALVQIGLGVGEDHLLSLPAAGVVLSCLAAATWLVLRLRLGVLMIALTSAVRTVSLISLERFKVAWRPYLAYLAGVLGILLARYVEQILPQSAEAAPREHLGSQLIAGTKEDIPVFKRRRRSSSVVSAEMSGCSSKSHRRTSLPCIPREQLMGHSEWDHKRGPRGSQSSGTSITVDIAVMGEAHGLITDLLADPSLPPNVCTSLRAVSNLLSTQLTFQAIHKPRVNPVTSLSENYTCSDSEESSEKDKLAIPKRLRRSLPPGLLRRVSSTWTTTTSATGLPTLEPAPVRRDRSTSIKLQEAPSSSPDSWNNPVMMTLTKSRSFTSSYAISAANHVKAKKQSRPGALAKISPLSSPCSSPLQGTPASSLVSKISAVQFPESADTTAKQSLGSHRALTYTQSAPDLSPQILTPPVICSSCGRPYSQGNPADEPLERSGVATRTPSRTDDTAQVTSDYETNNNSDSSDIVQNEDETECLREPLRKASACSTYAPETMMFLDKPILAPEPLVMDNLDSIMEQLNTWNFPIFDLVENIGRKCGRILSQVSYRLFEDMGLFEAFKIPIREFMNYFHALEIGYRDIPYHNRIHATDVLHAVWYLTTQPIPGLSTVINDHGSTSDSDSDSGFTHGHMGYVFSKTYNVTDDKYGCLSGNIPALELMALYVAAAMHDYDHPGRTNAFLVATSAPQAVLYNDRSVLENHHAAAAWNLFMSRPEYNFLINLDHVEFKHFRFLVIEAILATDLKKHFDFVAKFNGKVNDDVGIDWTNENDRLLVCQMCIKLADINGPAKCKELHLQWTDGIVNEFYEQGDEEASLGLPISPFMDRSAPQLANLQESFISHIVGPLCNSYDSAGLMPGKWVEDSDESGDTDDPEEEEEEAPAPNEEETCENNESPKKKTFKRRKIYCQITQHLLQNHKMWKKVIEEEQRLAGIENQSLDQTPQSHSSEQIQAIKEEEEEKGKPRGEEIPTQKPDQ
Protocol: Partially purified human recombinant phosphodiesterase (PDE3A) was obtained by cloning cDNA and expressing in S. frugiperda insect cells using a baculovirus expression system. Cells were harvested from culture by centrifuging at 400×g for 5 minutes. Cell pellet was resuspended in 20 ml of RIPA Buffer (150 mM NaCl, 10 mM Tris, 0.1% NP-40, pH8.3), 4 ml/200 ml of culture, plus protease inhibitors (100 μl/10 ml) and incubated on ice for 10-20 minutes then spun at 3500×g for 10 minutes at 4° C. Supernatant was kept and the pellet thrown away. Tritium-labeled cyclic AMP was hydrolysed to 5′-AMP by PDE3A. The 5′-AMP was then further hydrolysed to adenosine by nucleotidase in snake venom. An anion-exchange resin binds all charged nucleotides and leaves [3H]adenosine as the only labeled compound to be counted by liquid scintillation. The radiometric assay method is a modification of the two-step method of Thompson and Appleman [Biochemistry 10; 311-316; 1971], adapted for a 96 well plate format. 50 μl of diluted PDE3A was incubated with 50 μl of [3H]-CAMP (specific activity 25 Ci/mmol) and 11 μl of 50% DMSO (or compound dilution) for 20 minutes at 30° C. The enzyme was diluted in 20 mM Tris HCl pH7.4 (×2.2 final concentration) and [3H]-cAMP were diluted in 10 mM MgCl2, 40 mM Tris HCl pH 7.4 (×2.2 final concentration). Reactions were carried out in Greiner 96 deep well 1 ml master-block. The plates were centrifuged for 9 seconds before the 20 minutes incubation. The reaction was terminated by denaturing the PDE enzyme (at 70° C. for 2 minutes, plates were left to cool on ice for 10 minutes) after which 25 μl snake venom nucleotidase (225 ug/ml final concentration) was added and incubated for 10 minutes (at 30° C.), plates were centrifuged for 9 seconds before incubation. After incubation 200 μl Dowex resin (1×8, 200-400 mesh) was added and the plate was shaken for 20 minutes then centrifuged for 3 minutes at 1000×g. 50 μl of supernatant was removed and added to 200 μl of MicroScint-20 in white plates (Greiner 96-well Optiplate) and shaken for 30 minutes before reading on Perkin Elmer TopCount Scintillation Counter. GraphPad Prism™ was used to calculate the IC50 values using a sigmoidal dose response (variable slope). The analysis measures 4 parameters including the best fit values for the bottom and top fit of the curve, the hill slope value and the IC50 value.

In the case of `COc1cc(NC(=O)c2cc3c(nc2N2C[C@H](F)[C@@H](F)C2)COC3)cc2c(C)cc(=O)[nH]c12` (racemic) [Example 43, N-(8-methoxy-4-methyl-2-oxo-1H-quinolin-6-yl)-2-[rac-(3S,4S)-3,4-difluoropyrrolidin-1-yl]-5,7-dihydrofuro[3,4-b]pyridine-3-carboxamide], the Kd [1] is reported as 18 nM, the “Selectivity BRD4(2)/BRD4(1)” value [1] is reported as 22 and the Kd [2] is reported as 400 nM. The IC50 [3] was over 10 µM.
For `COc1cc(NC(=O)c2cc3c(nc2N2CCOCC2)CNC3)cc2c(C)cc(=O)[nH]c12` [Example 1, N-(8-methoxy-4-methyl-2-oxo-1H-quinolin-6-yl)-2-morpholino-6,7-dihydro-5H-pyrrolo[3,4-b]pyridine-3-carboxamide], the Kd [1] was 8 nM, the “Selectivity BRD4(2)/BRD4(1)” value [1] was 75 and the Kd [2] was 600 nM. For the same compound, the IC50 [3] was over 10 µM.
For `COc1cc(NC(=O)c2cc3c(nc2C2=CCOCC2)COC3)cc2c(C)cc(=O)[nH]c12` [Example 2, 2-(3,6-dihydro-2H-pyran-4-yl)-N-(8-methoxy-4-methyl-2-oxo-1H-quinolin-6-yl)-5,7-dihydrofuro[3,4-b]pyridine-3-carboxamide], the Kd [1] was 64 nM, the “Selectivity BRD4(2)/BRD4(1)” value [1] was 41 and the Kd [2] was 2600 nM. The IC50 [3] was over 10 µM.
For `COc1cc(NC(=O)c2cc3c(nc2N(C)C)COC3)cc2c(C)cc(=O)[nH]c12` [Example 6, 2-(dimethylamino)-N-(8-methoxy-4-methyl-2-oxo-1H-quinolin-6-yl)-5,7-dihydrofuro[3,4-b]pyridine-3-carboxamide], the Kd [1] was 120 nM, the “Selectivity BRD4(2)/BRD4(1)” value [1] was 11 and the Kd [2] was 1300 nM. It also gave an IC50 [3] of over 10 µM.
In the case of `Cc1cc(=O)[nH]c2c(C)cc(NC(=O)c3cc4c(nc3N3CCOCC3)COC4)cc12` [Example 7, N-(4,8-dimethyl-2-oxo-1H-quinolin-6-yl)-2-morpholino-5,7-dihydrofuro[3,4-b]pyridine-3-carboxamide], the Kd [1] is reported as 40 nM, the “Selectivity BRD4(2)/BRD4(1)” value [1] is reported as 178 and the Kd [2] is reported as 7100 nM. The IC50 [3] was over 10 µM.
`Cc1cc2[nH]c(=O)cc(C)c2cc1NC(=O)c1cc2c(nc1N1CCOCC1)COC2` [Example 11, N-(4,7-dimethyl-2-oxo-1H-quinolin-6-yl)-2-morpholino-5,7-dihydrofuro[3,4-b]pyridine-3-carboxamide] was tested, and the Kd [1] was 90 nM, the “Selectivity BRD4(2)/BRD4(1)” value [1] was over 111 and the Kd [2] was over 10000 nM. For the same compound, the IC50 [3] was 7 µM.
In the case of `CCOc1cc(NC(=O)c2cc3c(nc2N2CCOCC2)COC3)cc2c(C)cc(=O)[nH]c12` [Example 12, N-(8-ethoxy-4-methyl-2-oxo-1H-quinolin-6-yl)-2-morpholino-5,7-dihydrofuro[3,4-b]pyridine-3-carboxamide], the Kd [1] is reported as 87 nM, the “Selectivity BRD4(2)/BRD4(1)” value [1] is reported as 93 and the Kd [2] is reported as 8100 nM. For the same compound, the IC50 [3] was over 10 µM.
`Cc1c(NC(=O)c2cc3c(nc2N2CCOCC2)COC3)cc2c(C)cc(=O)[nH]c2c1C` [Example 13, 2-morpholino-N-(4,7,8-trimethyl-2-oxo-1H-quinolin-6-yl)-5,7-dihydrofuro[3,4-b]pyridine-3-carboxamide] was tested, and the Kd [1] was 280 nM, the “Selectivity BRD4(2)/BRD4(1)” value [1] was over 35 and the Kd [2] was over 10000 nM. For the same compound, the IC50 [3] was over 10 µM.
`COc1cc(NC(=O)c2cc3c(nc2N2CCOCC2)COC3)cc2c(C)cc(=O)[nH]c12` [Example 15, N-(8-methoxy-4-methyl-2-oxo-1H-quinolin-6-yl)-2-morpholino-5,7-dihydrofuro[3,4-b]pyridine-3-carboxamide] was tested, and the Kd [1] was 14 nM, the “Selectivity BRD4(2)/BRD4(1)” value [1] was 157 and the Kd [2] was 2200 nM. It also gave an IC50 [3] of over 10 µM.
For `COc1cc(NC(=O)c2cc3c(nc2N2C4CCC2COC4)COC3)cc2c(C)cc(=O)[nH]c12` [Example 17, N-(8-methoxy-4-methyl-2-oxo-1H-quinolin-6-yl)-2-(3-oxa-8-azabicyclo[3.2.1]octan-8-yl)-5,7-dihydrofuro[3,4-b]pyridine-3-carboxamide], the Kd [1] was 25 nM, the “Selectivity BRD4(2)/BRD4(1)” value [1] was 44 and the Kd [2] was 1100 nM. For the same compound, the IC50 [3] was over 10 µM.
In the case of `COc1cc(NC(=O)c2cc3c(nc2N2C[C@H]4C[C@@H]2CO4)COC3)cc2c(C)cc(=O)[nH]c12` [Example 24, N-(8-methoxy-4-methyl-2-oxo-1H-quinolin-6-yl)-2-[(1R,4R)-2-oxa-5-azabicyclo[2.2.1]heptan-5-yl]-5,7-dihydrofuro[3,4-b]pyridine-3-carboxamide], the IC50 [3] is reported as over 10 µM.
`COc1cc(NC(=O)c2cc3c(nc2N(C)CC2CC2)COC3)cc2c(C)cc(=O)[nH]c12` [Example 26, 2-[cyclopropylmethyl(methyl)amino]-N-(8-methoxy-4-methyl-2-oxo-1H-quinolin-6-yl)-5,7-dihydrofuro[3,4-b]pyridine-3-carboxamide] was tested, and the Kd [1] was 51 nM, the “Selectivity BRD4(2)/BRD4(1)” value [1] was 61 and the Kd [2] was 3100 nM. For the same compound, the IC50 [3] was over 10 µM.
`COc1cc(NC(=O)c2cc3c(nc2N2CCOCC2)CCC3)cc2c(C)cc(=O)[nH]c12` [Example 29, N-(8-methoxy-4-methyl-2-oxo-1H-quinolin-6-yl)-2-morpholino-6,7-dihydro-5H-cyclopenta[b]pyridine-3-carboxamide] was tested, and the Kd [1] was 18 nM, the “Selectivity BRD4(2)/BRD4(1)” value [1] was 106 and the Kd [2] was 1900 nM. For the same compound, the IC50 [3] was over 10 µM.
With `Cc1cc(=O)[nH]c2c(OCCO)cc(NC(=O)c3cc4c(nc3N3CCOCC3)COC4)cc12` [Example 36, N-[8-(2-hydroxyethoxy)-4-methyl-2-oxo-1H-quinolin-6-yl]-2-morpholino-5,7-dihydrofuro[3,4-b]pyridine-3-carboxamide] the Kd [1] was 27 nM, the “Selectivity BRD4(2)/BRD4(1)” value [1] was 15 and the Kd [2] was 400 nM. For the same compound, the IC50 [3] was over 10 µM.
With `Cc1cc(=O)[nH]c2c(OC3CNC3)cc(NC(=O)c3cc4c(nc3N3CCOCC3)COC4)cc12` [Example 37, N-[8-(azetidin-3-yloxy)-4-methyl-2-oxo-1H-quinolin-6-yl]-2-morpholino-5,7-dihydrofuro[3,4-b]pyridine-3-carboxamide] the Kd [1] was 35 nM, the “Selectivity BRD4(2)/BRD4(1)” value [1] was over 286 and the Kd [2] was over 10000 nM. The IC50 [3] was over 10 µM.
For `CNCCOc1cc(NC(=O)c2cc3c(nc2N2CCOCC2)COC3)cc2c(C)cc(=O)[nH]c12` [Example 38, N-[4-methyl-8-[2-(methylamino)ethoxy]-2-oxo-1H-quinolin-6-yl]-2-morpholino-5,7-dihydrofuro[3,4-b]pyridine-3-carboxamide], the Kd [1] was 20 nM, the “Selectivity BRD4(2)/BRD4(1)” value [1] was over 250 and the Kd [2] was over 5000 nM. For the same compound, the IC50 [3] was over 10 µM.
With `COc1cc(NC(=O)c2cc3c(nc2N2C4CCC2CC4)COC3)cc2c(C)cc(=O)[nH]c12` [Example 39, 2-(7-azabicyclo[2.2.1]heptan-7-yl)-N-(8-methoxy-4-methyl-2-oxo-1H-quinolin-6-yl)-5,7-dihydrofuro[3,4-b]pyridine-3-carboxamide] the Kd [1] was 7 nM, the “Selectivity BRD4(2)/BRD4(1)” value [1] was 43 and the Kd [2] was 300 nM. For the same compound, the IC50 [3] was over 10 µM.
For `COc1cc(NC(=O)c2cc3c(nc2N2C[C@@H](F)[C@@H](F)C2)COC3)cc2c(C)cc(=O)[nH]c12` [Example 42, N-(8-methoxy-4-methyl-2-oxo-1H-quinolin-6-yl)-2-[rac-(3R,4S)-3,4-difluoropyrrolidin-1-yl]-5,7-dihydrofuro[3,4-b]pyridine-3-carboxamide], the Kd [1] was 26 nM, the “Selectivity BRD4(2)/BRD4(1)” value [1] was 16 and the Kd [2] was 400 nM.
